Experimental data published in patent US20240228469A1, “PCSK9 INHIBITORS AND METHODS OF USE THEREOF” (AstraZeneca AB, priority 2022, published 2024).

Experiments:
[1] = biological target: GSK3β (Glycogen synthase kinase-3 beta) (Homo sapiens, UniProt P49841); test: Assay 6 GSK3β assay (ThermoFisher Z-Lyte FRET); format: biochemical; details: ATP Conc: 10 μM, geometric mean; read-out: Assay 6 (GSK3β FRET-Z-Lyte Cr) GMean IC50
In short: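 Z-Lyte FRET: 0.22-0.92 ng kinase with 2 μM Ser/Thr 09 peptide in HEPES pH 7.5, MgCl2, EGTA, 60 min at room temperature, then 60 min development. Compounds in 1% DMSO, 10-point 3-fold series from 10 μM; sigmoidal dose-response fit.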

PCSK9 = PCSK9 (Homo sapiens, UniProt Q8NBP7); test: Assay 2 Biophysical human PCSK9 assay (SPR, Biacore); format: binding; parameters: biotinylated human PCSK9 (31-692)-Avi-His6; His6 (C); details: single-cycle kinetics, 30° C., geometric mean, read-out: Assay 2 (PCSK9 BIAcore DBA Cr) GMean Kd
Protocol: The SPR binding experiments were performed on a Biacore S200 optical biosensor unit at 30° C. A Series S Sensor Chip SA that is designed to bind biotinylated molecules for interaction analysis in Biacore systems was equilibrated at room temperature prior to use. The running buffer for protein tethering and subsequent ligand binding experiments was 10 mM HEPES pH 7.4, 150 mM NaCl, 0.05% (v/v) Tween 20 pH 7.4.
For the surface tethering of PCSK9, biotinylated human PCSK9 (31-692)-Avi-His6 at a concentration of 0.5 mg/mL was used. Prior to the surface tethering, the surface was exposed to a solution of 50 mM NaOH, 500 mM NaCl via 3 consecutive injections of this solution with a contact time of 60 s and a flowrate of 10 μL min^−1 to remove non-conjugated streptavidin. The PCSK9 protein was diluted to a concentration of 20 μg/mL using running buffer and injected with a contact time of 180-300 s and a flowrate of 10 μL min^−1 over a single flow channel (typically flow channel 2 or flow channel 4) with the aim to achieve protein capture levels of >5000 response units (RU). Remaining biotin binding sites were blocked via 2 consecutive injections of a 10 μM D-biotin solution in running buffer with a contact time of 60 s and a flowrate of 10 μL min^−1 over all flow-channels. Flow-channels 1 and 3 typically served as a reference surface throughout the subsequent binding experiments.
The binding experiments were all performed at a flow rate of 30 PL min^−1 and by employing the method of single-cycle kinetics. This approach involves the sequential injection of a compound concentration series without regeneration steps. A contact time between 90-150 s was selected, which was followed by a 40 min dissociation phase to allow for a proper estimation of the dissociation rate constant. Test compounds were delivered in DMSO at a concentration of 10 mM and a digital dispenser HP D300 was used to set up the compound concentration series using 6 concentrations. The tested concentrations have been 30, 100, 300, 1000, 3000 and 10000 nM. Prior to injecting any compound, the surfaces were equilibrated by injecting running buffer over them in three separate pulses. The data collection rate was set to 10 Hz.
The raw sensorgrams of the compound injections were first subjected to reference subtraction (subtracting the signal from flow channel 1 and/or 3 from the signal from channels 2 and/or 4 respectively) and then blank subtraction (subtracting the signal from injecting DMSO controls from the reference subtracted data). The resulting double-referenced sensorgrams were then fitted using a 1:1 binding interaction model using the manufactures software package to extract kinetic- and affinity data. Active compounds have been defined by creating a detectable binding signal at the highest compound concentration ([…]) of 3 RUs. Kinetic- and affinity data on active compounds are only provided for those compounds where the binding signal at the highest compound concentration ([…]) is 50% of the theoretical maximum binding signal for a 1:1 binding interaction (Rmax, typically between 15-20 RUs) in order to enable a proper fitting of the data.

Sequence of PCSK9 (Q8NBP7 31-692): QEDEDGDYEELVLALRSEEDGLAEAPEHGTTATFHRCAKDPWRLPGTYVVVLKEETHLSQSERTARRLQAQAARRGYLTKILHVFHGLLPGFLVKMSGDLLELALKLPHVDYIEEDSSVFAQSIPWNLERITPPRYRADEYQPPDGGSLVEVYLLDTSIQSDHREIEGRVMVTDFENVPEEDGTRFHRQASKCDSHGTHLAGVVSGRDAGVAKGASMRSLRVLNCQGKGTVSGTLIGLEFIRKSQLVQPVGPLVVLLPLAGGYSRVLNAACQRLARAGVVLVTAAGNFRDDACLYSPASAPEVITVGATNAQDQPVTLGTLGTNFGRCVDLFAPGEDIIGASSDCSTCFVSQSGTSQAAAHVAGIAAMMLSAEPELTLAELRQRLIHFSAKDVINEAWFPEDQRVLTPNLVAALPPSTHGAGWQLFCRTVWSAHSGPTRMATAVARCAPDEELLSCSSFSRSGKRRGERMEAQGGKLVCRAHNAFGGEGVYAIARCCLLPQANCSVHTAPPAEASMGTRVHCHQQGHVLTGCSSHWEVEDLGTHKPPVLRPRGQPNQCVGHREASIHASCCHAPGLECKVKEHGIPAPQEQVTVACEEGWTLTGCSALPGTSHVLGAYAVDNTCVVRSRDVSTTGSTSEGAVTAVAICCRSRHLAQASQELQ
Sequence of GSK3β (Glycogen synthase kinase-3 beta) (P49841 whole entry): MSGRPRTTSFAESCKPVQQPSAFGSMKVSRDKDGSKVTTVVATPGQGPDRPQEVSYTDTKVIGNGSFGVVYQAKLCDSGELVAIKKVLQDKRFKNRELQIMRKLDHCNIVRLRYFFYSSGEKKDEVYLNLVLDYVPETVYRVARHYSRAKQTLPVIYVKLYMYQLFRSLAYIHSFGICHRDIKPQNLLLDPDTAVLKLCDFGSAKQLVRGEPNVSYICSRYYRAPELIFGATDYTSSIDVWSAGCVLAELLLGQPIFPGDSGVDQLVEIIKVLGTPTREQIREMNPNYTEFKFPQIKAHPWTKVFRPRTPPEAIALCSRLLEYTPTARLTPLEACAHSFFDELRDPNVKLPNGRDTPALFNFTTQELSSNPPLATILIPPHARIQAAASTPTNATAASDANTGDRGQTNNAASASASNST

Q: For Cc1cnc(N[C@H]2CC[C@H](Nc3ccc(-n4cccc(Cl)c4=O)cn3)C2)nn1 [Example 129, 3-Chloro-6′-(((1S,3S)-3-((6-methyl-1,2,4-triazin-3-yl)amino)cyclopentyl)amino)-2H-[1,3′-bipyridin]-2-one], which IC50 [1] is on record?
A: 4850 nM

Q: What about the Kd (PCSK9) of the same compound?
A: 1.3 nM

Q: Cc1cnc(N[C@H]2CC[C@H](Nc3ccc(-n4cccc(C)c4=O)cn3)C2)nn1 [Example 131, 3-Methyl-6′-(((1S,3S)-3-((6-methyl-1,2,4-triazin-3-yl)amino)cyclopentyl)amino)-2H-[1,3′-bipyridin]-2-one] was tested. Which IC50 [1] did it give?
A: > 10000 nM

Q: And the Kd (PCSK9)?
A: 2.4 nM

Q: Which results are given for COc1cccn(-c2ccc(N[C@H]3CC[C@H](Nc4ncc(C)nn4)C3)nc2)c1=O [Example 132, 3-Methoxy-6′-(((1S,3S)-3-((6-methyl-1,2,4-triazin-3-yl)amino)cyclopentyl)amino)-2H-[1,3′-bipyridin]-2-one]?
A: IC50 [1]: 2060 nM; Kd (PCSK9): 1.5 nM

Q: What does the source list for COc1ccc(=O)n(-c2ccc(N[C@H]3CC[C@H](Nc4ncc(C)nn4)C3)nc2)c1 [Example 133, 5-Methoxy-6′-(((1S,3S)-3-((6-methyl-1,2,4-triazin-3-yl)amino)cyclopentyl)amino)-2H-[1,3′-bipyridin]-2-one]?
A: IC50 [1]: 32 nM; Kd (PCSK9): 17 nM

Q: How did the IC50 [1] turn out when Cc1cnc(N[C@H]2CC[C@H](Nc3ccc(-n4cc(Cl)ccc4=O)cn3)C2)nn1 [Example 134, 5-Chloro-6′-(((1S,3S)-3-((6-methyl-1,2,4-triazin-3-yl)amino)cyclopentyl)amino)-2H-[1,3′-bipyridin]-2-one] was run?
A: 439 nM

Q: And the Kd (PCSK9)?
A: 9.1 nM

Q: Which IC50 [1] does the source give for Cc1cnc(N[C@H]2CC[C@H](Nc3ccc(-n4cccc(C(F)(F)F)c4=O)cn3)C2)nn1 [Example 135, 6′-(((1S,3S)-3-((6-Methyl-1,2,4-triazin-3-yl)amino)cyclopentyl)amino)-3-(trifluoromethyl)-2H-[1,3′-bipyridin]-2-one] here?
A: > 10000 nM

Q: What about the Kd (PCSK9) of the same compound?
A: 3.9 nM

Q: What does the source list for Cc1cnc(N[C@H]2CC[C@H](Nc3ccc(-n4cccc(OC(F)F)c4=O)cn3)C2)nn1 [Example 187, 3-(Difluoromethoxy)-6′-(((1S,3S)-3-((6-methyl-1,2,4-triazin-3-yl)amino)cyclopentyl)amino)-2H-[1,3′-bipyridin]-2-one]?
A: IC50 [1]: 3780 nM; Kd (PCSK9): 3.7 nM

Q: How did the IC50 [1] turn out when Cc1cnc(N[C@H]2CC[C@H](Nc3ccc(-n4c(=O)ccc5cccnc54)cn3)C2)nn1 [Example 197, 1-(6-(((1S,3S)-3-((6-Methyl-1,2,4-triazin-3-yl)amino)cyclopentyl)amino)pyridin-3-yl)-1,8-naphthyridin-2(1H)-one] was run?
A: > 10000 nM

Q: What about the Kd (PCSK9) of the same compound?
A: 2.3 nM

Q: For Cc1cnc(N[C@H]2CC[C@H](Nc3ccc(-n4cccc(-c5cnn(C)c5)c4=O)cn3)C2)nn1 [Example 198, 6′-(((1S,3S)-3-((6-Methyl-1,2,4-triazin-3-yl)amino)cyclopentyl)amino)-3-(1-methyl-1H-pyrazol-4-yl)-2H-[1,3′-bipyridin]-2-one], which IC50 [1] is on record?
A: > 10000 nM

Q: What about the Kd (PCSK9) of the same compound?
A: 3.8 nM

Q: What does the source list for Cc1cnc(N[C@H]2CC[C@H](Nc3ccc(-n4c(=O)n(C)c5ccc(C#N)cc54)cn3)C2)nn1 [Example 210, 1-Methyl-3-(6-(((1S,3S)-3-((6-methyl-1,2,4-triazin-3-yl)amino)cyclopentyl)amino)pyridin-3-yl)-2-oxo-2,3-dihydro-1H-benzo[d]imidazole-5-carbonitrile]?
A: IC50 [1]: > 10000 nM; Kd (PCSK9): 0.6 nM

Q: With Cc1cnc(N[C@H]2CC[C@H](Nc3ccc(-n4c(=O)n(C)c5cccnc54)cn3)C2)nn1 [Example 212, 1-Methyl-3-(6-(((1S,3S)-3-((6-methyl-1,2,4-triazin-3-yl)amino)cyclopentyl)amino)pyridin-3-yl)-1,3-dihydro-2H-imidazo[4,5-b]pyridin-2-one] as the compound, how does the IC50 [1] read?
A: > 10000 nM

Q: What about the Kd (PCSK9) of the same compound?
A: 1.7 nM

Q: Which results are given for Cc1cnc(N[C@H]2CC[C@H](Nc3ccc(-n4nccc(Cl)c4=O)cn3)C2)nn1 [Example 221, 4-Chloro-2-(6-(((1S,3S)-3-((6-methyl-1,2,4-triazin-3-yl)amino)cyclopentyl)amino)pyridin-3-yl)pyridazin-3(2H)-one]?
A: IC50 [1]: > 10000 nM; Kd (PCSK9): 1.7 nM
